Data as given in patent US20210154156A1, “APPLICATION OF COMPOUND IN INHIBITING AB ACCUMULATION AND TREATING ALZHEIMER'S DISEASE” (NORTHEAST NORMAL UNIVERSITY, priority 2018, published 2021).
Where a name gives a salt, the structure may show the parent alone.

Experiments:
formed Aβ fibers = molecular target: T1, formed Aβ fibers (Homo sapiens, UniProt P05067); assay: Depolymerization of the formed Aβ fibrous structure (ThT and TEM); assay type: biochemical
T1 construct: purchased Nanjing Elutrian Biological Co. Ltd
Procedure: The preparation was the same as that shown in Examples 1 and 2, except that the Aβ42 protein was first incubated at 37° C. for 48 hours, then the drug effect was added, the sample was taken at −20 ° C. every 6 hours, after 48 hours, using all of the samples for ThaT and TEAM tests.

[1] = tested on: human neuroma blasts SH-SY5Y; assay: MTT test of Aβ42 oligomer-mediated neurotoxicity in SH-SY5Y; assay type: cell-based
Procedure: The cells used in the Aβ42 oligomer-mediated neurotoxicity damage experiment were human neuroma blasts SH-SY5Y, incubated in DME medium of 10% FBS at 37° C. The control group without Aβ protein and the experimental group with added drug were cultured overnight at 37° C. with slow shaking, and transferred to a 96-well cell culture plate containing SH-SY5Y. The final concentration of Aβ protein was 1 uM and the final concentration of drug was 0.25 uM. 0.5 uM, 1 uM and 2 uM, three parallel holes for each concentration, action time 3 hours, MTT method 490 nm wavelength tested 5 times to analyze cell proliferation.

[2] = tested on: APP/PS1 double transgenic mice; assay: Morris water maze in APP/PS1 transgenic mice; assay type: in vivo; conditions: intragastric administration for 2 months
Description: (§1) The wild-type (WT) and APP/PS1 double transgenic mice used in the experiment of the present invention were purchased from the Model Animal Research Institute of Nanjing University, and the mouse genes were identified in strict accordance with the PCR method provided.
In the Morris water maze experiment, the mouse water maze training was two days (data not recorded). The mice were placed into the pool from 4 entry points (quadrants) facing the pool wall. The platform was hidden 1 cm underwater, and the water temperature was kept at 23° C. , and the training lasted for 2 minutes. […] The experiment phase started from the third day, and the experiment was continued for 6 days. Each mouse was tested once a day. During the experiment, the mice were respectively placed into the pool from 4 entry points (quadrants) facing the pool wall.
The time was recorded from the mice entering the water to the mice finding and staying in the underwater hidden platform. That was called as the incubation period. On the eighth day, the platform was removed, and each mouse was launched from the farthest position of the original platform and swam freely for 2 minutes. The swimming time of the animal in the target quadrant (the area where the platform located), the number of times of traversing the platform, the path and other main parameters were tracked and recorded by the miniature camera and analyzed.

APP/PS1 transgenic mice = assay: Thioflavin S and Congo red staining of brain Aβ plaques in APP/PS1 transgenic mice; assay type: in vivo
Description: as §1
10-month-old AD mice were anesthetized with 0.4% pentobarbital sodium. Blood was taken by perfusing the atria. 4% paraformaldehyde was perfused for whole body fixation. The brain tissue was taken and weighed. The hemibrains were put into 4% paraformaldehyde solution and used for histopathology. The other half was stored in a cryotube at −80° C. for biochemical analysis. The brain tissues fixed with 4% paraformaldehyde were embedded in wax and sliced. The plaques in the cerebral cortex and hippocampus were stained with Thioflavin S and Congo Red. Pathological images were obtained by digital microscope and fluorescence microscope and quantitatively analyzed.

Aβ protein monomer = molecular target: T2, Aβ protein monomer (Homo sapiens, UniProt P05067); assay: Circular dichroism spectrum experiment (CD) of Aβ β-sheet formation; assay type: biochemical; conditions: Aβ 20 uM; drug 10, 20, 40 uM; 12 hours 37° C.
T2 construct: purchased Nanjing Elutrian Biological Co. Ltd
Procedure: The A beta monomer was mixed with a drug, the final concentration of Aβ was 20 uM, the final concentrations of the drug were 0 uM, 10 uM, 20 uM and 40 uM respectively, and after 12 hours incubation at 37° C., a J-810 spectrometer (Jayasco, Japan) was used for detection. The wavelength range was 190-250 nm, the resolution was 0.5 nm, the spectrum width was 2 nm, the scanning speed was 100 nm/min, the response time was 1 s, and the measuring temperature was normal temperature. The solution was added to a quartz cuvette with an optical path of 0.1 mm for measurement, and each experiment was repeated three times. Subtracting the buffer curve from each scan curve as the experimental result, each experiment was repeated three times, and the average value was given.

[3] = tested on: APP/PS1 double transgenic mice; assay: Y maze in APP/PS1 transgenic mice; assay type: in vivo; conditions: after two months of treatment
Description: as §1
In the Y maze experiment, three black striped long arms were marked A, B, and C with the same appearance were combined in a Y shape. The mouse was put in the A arm, and recorded as an error if it turned back from the other long arm during free movement, such as ABA, BCB, etc., recalculated with this arm as the starting point, such as ABACBABCBA. The experiment time for each mouse lasted 8 minutes. When the experiment was completed, the Y labyrinth was cleaned and disinfected with alcohol, and the experiment was performed on the next mouse after drying.

Aβ42 monomer = molecular target: T3, Aβ42 monomer (Homo sapiens, UniProt P05067); assay: Transmission electron microscopy (TEM) of Aβ42 fiber formation; assay type: biochemical; conditions: 37° C. 24 hours; concentration-dependent
T3 construct: purchased Nanjing Elutrian Biological Co. Ltd
Procedure: The preparation was the same as that of Example 1. Then, the Aβ protein sample was incubated at 37° C. for 24 hours, dropped on the surface of a 300 mesh carbon film copper mesh, dried in air, dyed with 2% (w/v) phosphotungstate sodium salt negative for 30 seconds, standing at room temperature for about 4 hours, then the JEM-100CXII transmission electron microscope system (JEOL Inc., Tokyo, Japan) was used to detect and take pictures with an acceleration voltage of 80 kV.

Aβ42 monomers = molecular target: T4, Aβ42 monomers (Homo sapiens, UniProt P05067); assay: Thioflavin T test (ThT) of Aβ42 monomer aggregation; assay type: biochemical; conditions: Aβ 20 uM; drug 10, 20, 40 uM; 37° C. 24 hours; concentration-dependent
T4 construct: purchased Nanjing Elutrian Biological Co. Ltd
Procedure: The protein A beta protein was provided by Nanjing Elutrian Biological Co. Ltd. and the purity was greater than 95%. The compound macroflavin was provided by Shanghai Yuan-Ye biological company. The Aβ monomer powder was stored at −80° C., standing for 30 minutes at room temperature for the first time, then diluted with hexafluoroisopropanol (HFIP) to 1.0 mg/mL. It stood for at least 2 hours, carrying out ultrasonic 30 minutes to destroy the existing multi-polymer structure, standing and drying at low temperature, was immediately stored at −20° C. Thioflavin T was purchased from Sigma (cargo number T3516-5 G). 0.032 g of THT powder was weighed and dissolved in 20 mL of 20 mM Tris-HCl (pH 7.4) solution to obtain a 5 mM THT mother liquor, and was diluted to 5 uM when used.

T2 sequence (P05067 672-713 limits assumed): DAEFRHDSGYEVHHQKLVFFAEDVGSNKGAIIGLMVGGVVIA
T1 sequence (P05067 672-713 limits assumed): as above
T3 sequence (P05067 672-713 limits assumed): as above
T4 sequence (P05067 672-713 limits assumed): as above

ThT fluorescence intensity of pre-formed Aβ fibers vs non-dosing control (formed Aβ fibers; Aβ42 pre-incubated 37° C. 48 hours, then drug, sampled every 6 hours to 48 hours)	Depolymerization of formed Aβ fibers (TEM) (formed Aβ fibers; after 48 hours of treatment)	Aβ protein fiber density, length and width (TEM) (Aβ42 monomer)	ThT fluorescence intensity (Aβ42 monomer aggregation) vs control group without medicine (Aβ42 monomers)	SMILES	MTT absorbance value (protection from Aβ42 oligomer-mediated neurocytotoxicity) vs control group without drug ([1]; Aβ 1 uM, drug 0.25, 0.5, 1, 2 uM, 3 hours, 490 nm)	MTT effect compared with positive control curcumin ([1]; when the concentration was low)	Incubation period for AD mice to find the platform (Morris water maze) ([2]; 8-month-old APP/PS1 mice)	Number of times AD mice crossed the virtual platform (Morris water maze) ([2]; platform removed)	Plaque effect compared with positive control nourishing blood serum brain drug group (APP/PS1 transgenic mice; 10-month-old AD mice)	Number of stained Aβ deposition plaques in cortex or hippocampus (Thioflavin S, Congo red) vs normal saline AD mice (APP/PS1 transgenic mice; 10-month-old AD mice after 2 months intragastric administration)	Formation of the β-sheet structure of Aβ monomer (CD) (Aβ protein monomer)	Y maze effect compared with Arishen treatment group [3]	Correct rate in Y maze of AD mice ([3]; saline AD about 58%, WT about 82%)	Effect on improving symptoms of AD mice (Morris water maze) [2]
remained basically unchanged	could not depolymerize	decreased significantly	significantly decreased	Cc1cc(O)c2c(c1)C(=O)c1cc(O)cc(O)c1C2=O [emodin, 1,3,8-trihydroxy-6-methylanthracene-9, 10-dione]	increased significantly	stronger than that of the positive control curcumin	significantly reduced	significantly improved	slightly better	statistically significant reduction	significantly reduce	better than the Arishen treatment group	increased significantly	–
–	–	–	–	COc1cc2c(cc1OC)C(=O)C(CC1CCN(Cc3ccccc3)CC1)C2 (stereo not drawn) [Arishen, donepezil hydrochloride, reference compound]	–	–	–	–	–	–	had no effect	–	–	limited effect
